Columns and labels:
[1] = Caco-2 Permeability Assay; type: in vitro ADME, human; conditions: human
From the text: The compounds of the invention may be tested for biological activity as MPO inhibitors by methods known to those skilled in the art. In addition, methods such as, for example, a Caco-2 assay, may be used to test the bioavailability of the compounds of the invention. A description of a Caco-2 permeability assay is as follows:
• The Caco-2 monolayer is widely used across the pharmaceutical industry as an in vitro model of the human small intestinal mucosa to predict the absorption of orally administered drugs.^1-4 • The Caco-2 cell model mimics processes such as transcellular transport, paracellular transport, and some aspects of efflux and active transport. • Readout: Papp (A→B), Papp (B→A), Efflux ratio, % Recovery • Controls: with and without Pgp inhibitor; Atenolol, Propanolol, Taxel-1
The Caco-2 cells are cultured to confluency, trypsinized and seeded onto a filter transwell insert at a density of ^˜32,000 cells/well in DMEM cell culture medium. Cells are grown in a humidified atmosphere of 5% CO2 at 37° C. Following an overnight attachment period (24 h after seeding), the cell medium is replaced with fresh medium in both the apical and basolateral compartments every other day. The cell monolayers are used for transport studies 21 days post seeding after measuring the TEER values ([…]). The apical sides and basolateral sides are washed consecutively with HBSS 2.5% (v/v), HEPES (pH 7.4) or HBSS 2.5% (v/v), HEPES 10% (v/v), and Fetal Bovine Serum (pH 7.4) at 37° C. in an incubator under an atmosphere of 5% CO2.
Donor working solution is prepared by dilution of DMSO stock of test article or positive control with transport media to 10 μM.
For A→B directional transport, the donor working solution (with test article or positive control, with or without Pgp inhibitor) is added to the apical (A) compartment and the transport media as receiver working solution is added to the basolateral (B) compartment. For B→A directional transport, the donor working solution (with positive control or test article, with or without Pgp inhibitor) is added to the basolateral (B) compartment and transport media as receiver working solution is added to the apical (A) compartment.
The cells are incubated in a humidified atmosphere of 5% CO2 at 37° C. for 90 minutes.
At the end of the incubation, samples are taken from both donor and receiver compartments and transferred into 96-well assay plates containing internal standard solution (IS) in each well. After centrifugation, the supernatant solutions are transferred to clean 96 well plates and analyzed by LC-MS/MS. The MS detection is performed using a Sciex API 4000 instrument. Each compound is analyzed by reversed phase HPLC.
The parameters Papp (apparent permeability) and efflux ratio are calculated as follows:
Papp=(dQ/dt)×(1/C0)×(1/A)
Efflux ratio=Papp[B→A]/Papp[A→B]
where dQ/dt is the permeability rate, C0 is the initial concentration in the donor compartment, and A is the surface area of the cell monolayer (0.33 cm^2). The Papp value is a rate measured in cm/s. Calculated Papp is ranked as low (<[…]), moderate (1-10×10^−6 cm/s), and high (>[…]).
Comparing the efflux ratios generated in the presence and absence of a Pgp inhibitor identifies whether the test article is a Pgp substrate.
Recovery is calculated as follows:
% Recovery=(Total compound mass in donor and receiver compartments at the end of the incubation/Initial compound mass in the donor compartment)×100.

[2] = Stability in Simulated Gastric Fluid (SGF); type: in vitro ADME; design: key: % parent compound remaining relative to 0-minute sample
Procedure: (§1) Simulated gastric fluid (SGF) and Simulated intestinal fluid (SIF) stability are in vitro metrics indicating the ability of a compound to pass through the gastrointestinal tract […] or completely digested. An undigested or nearly undigested compound will usually survive gut transit long enough to be absorbed into the systemic circulation. Greater than 50% remaining intact compound at 1 hour indicates a relatively stable molecule that will likely be absorbed in the gut.
(§2) For each test compound, samples at a final concentration of 2 μg/mL are prepared in respective blank simulated gastric fluid with pepsin (pH 1.2) and simulated intestinal fluid with pancreatin (pH 6.8). All samples are incubated at 37° C. on a 150-rpm orbital shaker, and an aliquot is removed at predetermined time points (0 to 60 minutes). Samples are precipitated with three volumes of acetonitrile containing propranolol as internal standard, and centrifuged for 10 min at 2,000 g before LC-MS/MS analysis of the supernatant solutions. Percent parent compound remaining is determined relative to 0-minute incubation samples. If a sufficient number of time points are available, the degradation half-life is calculated based on the natural log of % compound remaining vs. time plot.

[3] = Plasma Stability; type: in vitro ADME, human
Procedure: Plasma stability estimates the ability of a compound to remain intact in the blood. For prodrugs that are intended to be hydrolyzed by plasma enzymes a certain level of instability in plasma indicates the compound is probably breaking down to the parent drug. A stability range of 25-75% remaining parent compound after 1 hour in plasma indicates the compound is likely breaking down to the parent drug molecule and a patient will be exposed to this parent molecule.
Assessment of plasma stability was carried out by individual incubations of drug candidates in fresh human plasma at a concentration of 1 μM for 1 hour at 37° C. After which, the samples were de-proteinized by addition of 2 volumes of acetonitrile containing 0.1% formic acid and internal standard, vortex mixed for 2 minutes and centrifuged at 4,000 rpm for 10 minutes to pellet precipitated protein. The resulting supernatant containing the drug candidates was diluted 5-fold with water containing 0.1% formic acid and submitted to LCMS/MS analysis. All determinations were done in triplicate. Plasma stability was expressed as percent of control remaining.
See Pelletier et al. ACS Med. Chem. Lett. 2018, 9, 752-756.

[4] = Stability in Simulated Intestinal Fluid (SIF); type: in vitro ADME; design: key: % parent compound remaining relative to 0-minute sample
Procedure: as §1, §2

[5] = Caco-2, pH 7.4, donor 10 μM, 90 minutes, 37° C., direction not given
[6] = % remaining at 1 h, SGF with pepsin pH 1.2, 2 μg/mL, 37° C.
[7] = % remaining at 1 h, human plasma, 1 μM, 37° C.
[8] = % remaining at 1 h, SIF with pancreatin pH 6.8, 2 μg/mL, 37° C.
[9] = Caco-2, pH 7.4, Caco-2 monolayer
[10] = % remaining at 1 h in simulated gastric fluid
[11] = % remaining at 1 h in human plasma
[12] = % remaining at 1 h in simulated intestinal fluid

Structure (SMILES) | Papp at 90 min, 10 µM [1, 5] | SGF [2, 6] | human Plasma stability [3, 7] | SIF [4, 8] | Papp at 90 min, 10 µM [1, 9] | SGF [2, 10] | human Plasma stability [3, 11] | SIF [4, 12]
CC(C)OCCn1c(=S)[nH]c(=O)c2c1ccn2COC(=O)[C@@H]1CCCN1C(=O)OC(C)(C)C [Example 1, (S)-tert-Butyl (1,2,3,4-tetrahydro-1-(2-isopropoxyethyl)-4-oxo-2-thioxopyrrolo[3,2-d]pyrimidin-5-yl)methyl pyrrolidine-1,2-dicarboxylate] | 37.1 ×10⁻⁶ cm/s | 99% | 92% | 94% |  |  |  | 
CC(C)OCCn1c(=S)[nH]c(=O)c2c1ccn2COC(=O)[C@@H]1CCC(=O)N1C(=O)OCc1ccccc1 [Example 4, 1-benzyl 2-{4-oxo-1-[2-(propan-2-yloxy)ethyl]-2-sulfanylidene-1H,2H,3H,4H,5H-pyrrolo[3,2-d]pyrimidin-5-yl}methyl (2S)-5-oxopyrrolidine-1,2-dicarboxylate] | 13.4 ×10⁻⁶ cm/s | 97% | 40% | 94% |  |  |  | 
CC(C)OCCn1c(=S)[nH]c(=O)c2c1ccn2COC(=O)CCNC(=O)OC(C)(C)C [Example 6, {4-Oxo-1-[2-(propan-2-yloxy)ethyl]-2-sulfanylidene-1H,2H,3H,4H,5H-pyrrolo[3,2-d]pyrimidin-5-yl}methyl 3-{[(tert-butoxy)carbonyl]amino}propanoate] | 17.9 ×10⁻⁶ cm/s | 82% | 59% | 67% |  |  |  | 
CC(C)OCCn1c(=S)[nH]c(=O)c2c1ccn2COC(=O)CCCCNC(=O)OC(C)(C)C [Example 7, {4-oxo-1-[2-(propan-2-yloxy)ethyl]-2-sulfanylidene-1H,2H,3H,4H,5H-pyrrolo[3,2-d]pyrimidin-5-yl}methyl 5-{[(tert-butoxy)carbonyl]amino}pentanoate] | 14.7 ×10⁻⁶ cm/s | 66% | 4% | 40% |  |  |  | 
CC(C)OCCn1c(=S)[nH]c(=O)c2c1ccn2COC(=O)CCN [Example 8, Trifluoroacetic acid {4-oxo-1-[2-(propan-2-yloxy)ethyl]-2-sulfanylidene-1H,2H,3H,4H,5H-pyrrolo[3,2-d]pyrimidin-5-yl}methyl 3-aminopropanoate] | 0.46 ×10⁻⁶ cm/s | 97% | 45% | 68% |  |  |  | 
CC(C)OCCn1c(=S)[nH]c(=O)c2c1ccn2COC(=O)CCNC(=O)CNC(=O)OC(C)(C)C [Example 9, {4-Oxo-1-[2-(propan-2-yloxy)ethyl]-2-sulfanylidene-1H,2H,3H,4H,5H-pyrrolo[3,2-d]pyrimidin-5-yl}methyl 3-(2-{[(tert-butoxy)carbonyl]amino}acetamido)propanoate] | 1.53 ×10⁻⁶ cm/s | 100% | 52% | 61% |  |  |  | 
CC(C)OCCn1c(=S)[nH]c(=O)c2c1ccn2COC(=O)CCCCNC(=O)[C@@H](NC(=O)OC(C)(C)C)C(C)C [Example 10, {4-oxo-1-[2-(propan-2-yloxy)-ethyl]-2-sulfanylidene-1H,2H,3H,4H,5H-pyrrolo[3,2-d]pyrimidin-5-yl}methyl5-[(2S)-2-{[(tert-butoxy)carbonyl]amino}-3-methylbutanamido]pentanoate] | 4.87 ×10⁻⁶ cm/s | 81% | 72% | 76% |  |  |  | 
CC(C)OCCn1c(=S)[nH]c(=O)c2c1ccn2COC(=O)CCNC(=O)[C@@H](NC(=O)OC(C)(C)C)C(C)C [Example 11, {4-oxo-1-[2-(propan-2-yloxy)-ethyl]-2-sulfanylidene-1H,2H,3H,4H,5H-pyrrolo[3,2-d]pyrimidin-5-yl}methyl3-[(2S)-2-{[(tert-butoxy)carbonyl]amino}-3-methylbutanamido]propanoate] | 1.44 ×10⁻⁶ cm/s | 74% | 99% | 69% |  |  |  | 
CC(C)OCCn1c(=S)[nH]c(=O)c2c1ccn2COC(=O)CCCCNC(=O)[C@@H](N)C(C)C [Example 12, Trifluoroacetic acid {4-oxo-1-[2-(propan-2-yloxy)ethyl]-2-sulfanylidene-1H,2H,3H,4H,5H-pyrrolo[3,2-d]pyrimidin-5-yl}methyl 5-[(2S)-2-amino-3-methylbutanamido]pentanoate] | 0.4 ×10⁻⁶ cm/s | 100% | 76% | 94% |  |  |  | 
CC(C)OCCn1c(=S)[nH]c(=O)c2c1ccn2COC(=O)CCCCNC(=O)CNC(=O)OC(C)(C)C [Example 13] |  |  |  |  | 1.88 ×10⁻⁶ cm/s | 96% remaining | 1% remaining | 94% remaining
CC(C)OCCn1c(=S)[nH]c(=O)c2c1ccn2COC(=O)CCNC(=O)[C@@H](N)C(C)C.O=C(O)C(F)(F)F [Example 14] |  |  |  |  | < 0.203 ×10⁻⁶ cm/s | 95% remaining | 55% remaining | 84% remaining
CC(C)OCCn1c(=S)[nH]c(=O)c2c1ccn2COC(=O)CCCCNC(=O)[C@H](CCc1ccccc1)NC(=O)OC(C)(C)C.O=C(O)C(F)(F)F [Example 18] |  |  |  |  | 7.59 ×10⁻⁶ cm/s | 100% | 66% remaining | 65% remaining
CC(C)OCCn1c(=S)[nH]c(=O)c2c1ccn2COC(=O)CCNC(=O)[C@H](CCc1ccccc1)NC(=O)OC(C)(C)C.O=C(O)C(F)(F)F [Example 19] |  |  |  |  | 11.7 ×10⁻⁶ cm/s | 82% remaining | 42% remaining | 57% remaining
CSCC[C@H](NC(=O)OCC1c2ccccc2-c2ccccc21)C(=O)NCCCCC(=O)OCn1ccc2c1c(=O)[nH]c(=S)n2CCOC(C)C.O=C(O)C(F)(F)F [Example 20] |  |  |  |  | 0.985 ×10⁻⁶ cm/s | 80% remaining | 64% remaining | 76% remaining
CC(C)OCCn1c(SCOC(=O)C(C)(C)C)nc(=O)c2c1ccn2COC(=O)C(C)(C)C [Example 144] |  |  |  |  | 5.11 ×10⁻⁶ cm/s |  |  | 
CC(C)OCCn1c(SCOC(=O)c2ccccc2)nc(=O)c2c1ccn2COC(=O)c1ccccc1.O=C(O)C(F)(F)F [Example 158] |  |  |  |  | 5.37 ×10⁻⁶ cm/s |  |  | 

Source: patent US20240067651A1 (Biohaven Therapeutics Ltd., priority 2019, published 2024)
